Ends that are not written are not given here.
Columns and labels:
CHA15 cells = assay: Flow cytometry (FACS) of OCT4- and NANOG-positive cells (Fig. 6c, Supplementary Fig. 6b); type: cell-based, human
Experimental: (§1) For CPP-conjugated peptide delivery, HeLa, 293T, and PA-1 cells were incubated with CPP-conjugated peptides or CPP-FITC at 2 μM in DMEM with 10% FBS for 12 h a day before cell harvest. hPSCs were treated with CPP-conjugated peptides at 10 μM in mTeSR Plus Medium, and the peptide-containing medium was changed every day over 10 days. The ROCK inhibitor (Tocris Bioscience, Y-27632) treated-hPSCs were dissociated into single cells using Accutase (Merck, SCR005) and differentiated into ectoderm, mesoderm, and endoderm using the STEMdiff Trilineage Differentiation Kit ([…] Technologies, 05230) following the manufacturer’s protocol. Differentiated cells treated with CPP-conjugated peptides were analysed at 0, 3, and 5 days for ectoderm and endoderm, and at 0, 3, and 4 days for mesoderm.
To evaluate the relative cell number expressing the indicated proteins, CHA15 cells with the indicated CPP-conjugated peptide were fixed with BD Cytofix Fixation Buffer (BD Biosciences Pharmingen, 554655) followed by permeabilization with 0.1% BSA/PBS solution supplemented with 10% NGS and 0.3% Triton X-100 for 1 h at 4 °C. After washing, cells were incubated with the primary antibodies (OCT4 1:1000, NANOG 1:1000, DLK1 1:1000, SOX2 1:1000, LHX2 1:1000) and then, secondary antibody, Alexa Fluor 488 (1:1000), was applied. The positive cells were determined using flow cytometry (FACSCanto, BD Pharmingen), and data was analysed using the Flow Jo-v10 software program.

hPSCs = assay: RT-qPCR of pluripotency and germ-layer markers during differentiation with CPP-peptides (Supplementary Fig. 7b-e); type: cell-based, human; details: for Difference between means (B - A) ± SEM: P8 - P1; for BMP2 mRNA level (RT-qPCR) / BMP4 mRNA level (RT-qPCR) / CDH2 mRNA level (RT-qPCR) / CXCR4 mRNA level (RT-qPCR) / SNAI1 mRNA level (RT-qPCR) / TBXT mRNA level (RT-qPCR): Fig. s7d
Experimental: as §1, with “mesoderm. […]” for “mesoderm.”
cDNA was synthesised using RevertAid Reverse Transcriptase (Thermo Fisher Scientific, EP0441) with synthesised random hexamer (Macrogen) for total RNA or stem-loop primers for miRNA. For RT-qPCR reactions, the SensiFAST SYBR No-ROX kit (Meridian Bioscience) was used according to the manufacturer’s protocol. All data analysis and visualisation were conducted using R 3.6.1 [www.r-project.org] or GraphPad Prism 10. RT primers for miRNA and RT-qPCR primer sequences are provided in Supplementary Data 6. […]
FPKM of each gene was presented f r om RNA-seq analysis. b–e hPSCs wer e treated with the indicated peptide during each germ la ye r differentiation. […]
An unpaired Student’s t-test was used for a–e. Data are presented as mean values ± SEM. All statistical test us ed wer e two-s ided. T he m inim um number of independent biological replicate experim ents was a–f n = 3. T he experiments wer e conducted three tim es, each iteration producing consistent results.

[1] = CHA15, CPP-peptide 10 μM, mean of 3 sets

KKKWCRKKKSSADEKRYRALKRTAERELLMNA [P8]
NANOG-positive cells, FACS (relative), mean (CHA15 cells; [1]): 0.7195
OCT4-positive cells, FACS (relative), mean (CHA15 cells; [1]): 0.7944
NANOG FACS, difference between means vs P1 ± SEM (CHA15 cells; CHA15, vs CPP-P1): -0.2805 ± 0.006838
OCT4 FACS, difference between means vs P1 ± SEM (CHA15 cells; CHA15, vs CPP-P1): -0.2056 ± 0.01612
CXCR4 (RT-qPCR) (hPSCs; Day 0, replicate 1, Fig. s7e): 1.088
CXCR4 (RT-qPCR) (hPSCs; Day 0, replicate 2, Fig. s7e): 0.7848
CXCR4 (RT-qPCR) (hPSCs; Day 0, replicate 3, Fig. s7e): 1.127
CXCR4 (RT-qPCR) (hPSCs; Day 3, replicate 1, Fig. s7e): 70.9428
CXCR4 (RT-qPCR) (hPSCs; Day 3, replicate 2, Fig. s7e): 396.929
CXCR4 (RT-qPCR) (hPSCs; Day 3, replicate 3, Fig. s7e): 186.896
CXCR4 (RT-qPCR) (hPSCs; Day 5, replicate 1, Fig. s7e): 166.399
CXCR4 (RT-qPCR) (hPSCs; Day 5, replicate 2, Fig. s7e): 221.471
CXCR4 (RT-qPCR) (hPSCs; Day 5, replicate 3, Fig. s7e): 55.5295
Difference between means (B - A) ± SEM (hPSCs; CXCR4 day 3): -395.9 ± 135.2
Mean CXCR4 (RT-qPCR) (hPSCs; CXCR4 day 3, mean of n = 3, Fig. s7e): 218.3
Difference between means (B - A) ± SEM (hPSCs; CXCR4 day 5): -733.3 ± 94.11
Mean CXCR4 (RT-qPCR) (hPSCs; CXCR4 day 5, mean of n = 3, Fig. s7e): 147.8
FOXA1 (RT-qPCR) (hPSCs; Day 0, replicate 1, Fig. s7e): 1.247
FOXA1 (RT-qPCR) (hPSCs; Day 0, replicate 2, Fig. s7e): 1.413
FOXA1 (RT-qPCR) (hPSCs; Day 0, replicate 3, Fig. s7e): 0.3396
FOXA1 (RT-qPCR) (hPSCs; Day 3, replicate 1, Fig. s7e): 74.3757
FOXA1 (RT-qPCR) (hPSCs; Day 3, replicate 2, Fig. s7e): 54.052
FOXA1 (RT-qPCR) (hPSCs; Day 3, replicate 3, Fig. s7e): 82.1532
FOXA1 (RT-qPCR) (hPSCs; Day 5, replicate 1, Fig. s7e): 512.006
FOXA1 (RT-qPCR) (hPSCs; Day 5, replicate 2, Fig. s7e): 494.768
FOXA1 (RT-qPCR) (hPSCs; Day 5, replicate 3, Fig. s7e): 555.597
Difference between means (B - A) ± SEM (hPSCs; FOXA1 day 5): 207.3 ± 47.14
Mean FOXA1 (RT-qPCR) (hPSCs; FOXA1 day 5, mean of n = 3, Fig. s7e): 520.8
SOX2 difference between means (P8 - P1) ± SEM (hPSCs; Fig. s7b, mesoderm, day 4, P8 vs. P1): 0.07995 ± 0.0229
SOX2 mRNA level (RT-qPCR), mean (hPSCs; Fig. s7b, mesoderm, day 4, mean of 3 replicates): 0.08192
BMP2 mRNA level (RT-qPCR) (hPSCs; Day 0, replicate 1): 0.8054
BMP4 mRNA level (RT-qPCR) (hPSCs; Day 0, replicate 1): 1.545
CDH2 mRNA level (RT-qPCR) (hPSCs; Day 0, replicate 1): 1.016
CXCR4 mRNA level (RT-qPCR) (hPSCs; Day 0, replicate 1): 0.9995
SNAI1 mRNA level (RT-qPCR) (hPSCs; Day 0, replicate 1): 1.4406
TBXT mRNA level (RT-qPCR) (hPSCs; Day 0, replicate 1): 1.3
BMP2 mRNA level (RT-qPCR) (hPSCs; Day 0, replicate 2): 1.199
BMP4 mRNA level (RT-qPCR) (hPSCs; Day 0, replicate 2): 0.6508
CDH2 mRNA level (RT-qPCR) (hPSCs; Day 0, replicate 2): 0.7569
CXCR4 mRNA level (RT-qPCR) (hPSCs; Day 0, replicate 2): 1.121
SNAI1 mRNA level (RT-qPCR) (hPSCs; Day 0, replicate 2): 0.9418
TBXT mRNA level (RT-qPCR) (hPSCs; Day 0, replicate 2): 0.8652
BMP2 mRNA level (RT-qPCR) (hPSCs; Day 0, replicate 3): 0.9954
BMP4 mRNA level (RT-qPCR) (hPSCs; Day 0, replicate 3): 0.8046
CDH2 mRNA level (RT-qPCR) (hPSCs; Day 0, replicate 3): 1.227
CXCR4 mRNA level (RT-qPCR) (hPSCs; Day 0, replicate 3): 0.8798
SNAI1 mRNA level (RT-qPCR) (hPSCs; Day 0, replicate 3): 0.6176
TBXT mRNA level (RT-qPCR) (hPSCs; Day 0, replicate 3): 0.8351
BMP2 mRNA level (RT-qPCR) (hPSCs; Day 3, replicate 1): 1.1089
BMP4 mRNA level (RT-qPCR) (hPSCs; Day 3, replicate 1): 41.4056
CDH2 mRNA level (RT-qPCR) (hPSCs; Day 3, replicate 1): 19.486
CXCR4 mRNA level (RT-qPCR) (hPSCs; Day 3, replicate 1): 784.151
SNAI1 mRNA level (RT-qPCR) (hPSCs; Day 3, replicate 1): 12.8862
TBXT mRNA level (RT-qPCR) (hPSCs; Day 3, replicate 1): 3854.3
BMP2 mRNA level (RT-qPCR) (hPSCs; Day 3, replicate 2): 1.096
BMP4 mRNA level (RT-qPCR) (hPSCs; Day 3, replicate 2): 50.4784
CDH2 mRNA level (RT-qPCR) (hPSCs; Day 3, replicate 2): 21.455
CXCR4 mRNA level (RT-qPCR) (hPSCs; Day 3, replicate 2): 774.595

Reference: publication PMC10762078, “Role of UPF1-LIN28A interaction during early differentiation of pluripotent stem cells” (Nature Communications, 2024)
